One test deals with PPM1D-mutant cells. In words: In vivo competition experiment in bone marrow chimeras treated with cytarabine. To be noted: mice. An excerpt: FIG. 5 provides an experimental schema of an in vivo competition experiment. Bone marrow chimaeras were generated by transplanting Mx-Cre Cas9 cKit^+Cas9 cells transduced with a BFP-tagged sgRNA targeting exon 6 of PPM1D or a tRFP-tagged control sgRNA into lethally-irradiated syngeneic recipients in a 1:5 ratio.
PPM1D and control sgRNAs were identified through their fluorophores. […] […] PPM1D and control sgRNAs were identified through their fluorophores.
Whether PPM1D mutations confer resistance to chemotherapy in vivo was examined. In another experiment, bone marrow chimeras were generated using Mx-Cre Cas9 c-Kit^+ cells that were transduced with a BFP-tagged sgRNA targeting exon 6 of PPM1D or a tRFP-tagged control sgRNA and transplanted into lethally-irradiated syngeneic recipients in a 1:5 ratio (FIG. 5). Mice were treated with cytarabine or vehicle after hematopoietic reconstitution.

Test [1] has as its system Molm13 PPM1D-mutant and control single cell clones. Put plainly: Annexin V staining and flow cytometric analysis. In kind it is cell-based, human. The settings on record: 400 nM cytarabine, 24 hours. An excerpt: FIG. 9E is a chart depicting the consensus sequence of PPM1D based on substrate analysis of 43 substrate candidates of PPM1D. FIG. 9F depicts 43 potential PPM1D substrate sites on pSer/Thr residues on 25 proteins. […] Only localized sites were considered. Figure discloses SEQ ID NOS 4-20 and 20-31, respectively, in order of appearance. FIG. 9G depicts a schema illustrating the components of the DNA-damage response pathway that are targeted by PPM1D in leukemia cells, based on the results from the phosphoproteomics analysis. Phospho-targets of PPM1D identified by mass spectrometry (FDR<0.1) are shown in bold. Predicted PPM1D target sites that were based on the identified consensus sequence with a glutamine at +1 and >2 acidic residues (p=3.595e-13, Fisher's exact test) are shown in italics.
(§1) 72 hour cell viability analysis in Molm13 PPM1D-mutant and control single cell clones after exposure to increasing doses of GSK2830371. FIG. 10F is a graph showing percent Annexin V positive cells in cells treated with PPM1D inhibitor or vehicle. Annexin V staining and flow cytometric analysis of Molm13 PPM1D-mutant and control single cell clones exposed to 3 μM of GSK2830371. *=p<0.05, **=p<0.01, ***=p<0.001

The test system is the same in test [2]. In words: 72-hour cell viability analysis. The settings on record: for viability of PPM1D-mutant cells versus control cells in the presence of chemotherapeutic agent: 72 hours, increasing concentrations. In kind it is cell-based, human. Here is the method: FIG. 2B provides immunoblots of whole cell lysates from Molm13 control cells (control), PPM1D-mutant pooled clones and PPM1D frame-shift (fs) mutant single cell clones probed with anti-PPM1D and anti-Actin. […] FIG. 2D is a plot depicting viability assays in Molm13 PPM1D-mutant or control single cells clones that were treated with increasing concentrations of cyclophosphamide for 72 hours. FIG. 2E is a plot depicting viability assays in Molm13 PPM1D-mutant or control single cells clones that were treated with increasing concentrations of cisplatin for 72 hours. […] FIG. 2G is a plot depicting flow cytometric readout of competition experiment with 5% pooled Molm13 PPM1D-mutant cells and 95% pooled Molm13 control cells exposed to 350 nM Cyclophosphamide or vehicle for 24 days. FIG. 2H is a plot depicting flow cytometric readout of competition experiment with 5% pooled Molm13 PPM1D-mutant cells and 95% pooled Molm13 control cells exposed to 1 μM Cisplatin or vehicle for 24 days. […] PPM1D and control sgRNAs were identified through their fluorophores.
The line represents the locally weighted scatterplot smoothing (LOESS) of 0.1. […] FIG. 8B is a vector map of the degradation reporter vector, with different PPM1D cDNA constructs inserted. FIG. 8C is a graph showing EGFP/mCherry ratio for Molm13 cells with overexpression of wild type PPM1D, truncated PPM1D or the C-terminal end of PPM1D. FIG. 8D is a graph showing EGFP/mCherry ratio for Molm13 p53^−/− cells with overexpression of wild type PPM1D, truncated PPM1D or the C-terminal end of PPM1D. FIG. 8E is a graph showing EGFP/mCherry ratio in Molm13 cells before and after exposure to MG132 (10 μM, 6 hours), normalized to pre-treatment values. FIG. 8F is a plot showing cell viability analysis in Molm13 control cells (control), Molm13 PPM1D truncating mutant cells (PPM1D mutant) and Molm13 cells with overexpression of wild-type PPM1D (WT overexpression). […] For all experiments the following apply: *=p<0.05, **=p<0.01, ***=p<0.001,****=p<0.0001
as §1
To study the role of PPM1D mutations in chemotherapy resistance, mutations in PPM1D were induced using the CRISPR-Cas9 system. […] Using sequence verified PPM1D mutant (fs) and empty vector control Molm13 cells, the effects of mutant and wild type PPM1D in the response to DNA damaging chemotherapy were analyzed. […] (FIG. 1C).
(§2) To study the sensitivity of PPM1D truncating mutations to chemotherapy exposure, frame-shift mutations were introduced in the PPM1D gene in Molm13 AML cells, which are TP53 wild-type, using CRISPR-Cas9.

In test [3] the test system is Molm13 PPM1D-mutant pooled cells and control pooled cells. Put plainly: In vitro competition experiment, PPM1D-mutant cells mixed with control cells. In kind it is cell-based, human. To be noted: PPM1D mutant cells mixed with control cells. How it is done: FIG. 2B provides immunoblots of whole cell lysates from Molm13 control cells (control), PPM1D-mutant pooled clones and PPM1D frame-shift (fs) mutant single cell clones probed with anti-PPM1D and anti-Actin. […] FIG. 2D is a plot depicting viability assays in Molm13 PPM1D-mutant or control single cells clones that were treated with increasing concentrations of cyclophosphamide for 72 hours. FIG. 2E is a plot depicting viability assays in Molm13 PPM1D-mutant or control single cells clones that were treated with increasing concentrations of cisplatin for 72 hours. […] FIG. […] FIG. […] PPM1D and control sgRNAs were identified through their fluorophores.
as §1, §2

Test [4] concerns Molm13 PPM1D-mutant and control single cell clones. Put plainly: BrdU staining and flow cytometric analysis (cell cycle). It counts as cell-based, human. The settings on record: 100 nM cytarabine, 24 hours.
A further test relates to PPM1D. Put plainly: PPM1D degradation reporter (EGFP/mCherry ratio). To be noted: Molm13 cells, MG132 10 μM, 6 hours. It counts as cell-based, human. An excerpt:
The line represents the locally weighted scatterplot smoothing (LOESS) of 0.1. Overlaid are frame-shift and non-sense mutations (black bars) identified in the blood cells of 29,562 persons as described in FIG. 2A. FIG. 8B is a vector map of the degradation reporter vector, with different PPM1D cDNA constructs inserted. FIG. 8C is a graph showing EGFP/mCherry ratio for Molm13 cells with overexpression of wild type PPM1D, truncated PPM1D or the C-terminal end of PPM1D. FIG. 8D is a graph showing EGFP/mCherry ratio for Molm13 p53^−/− cells with overexpression of wild type PPM1D, truncated PPM1D or the C-terminal end of PPM1D. FIG. 8E is a graph showing EGFP/mCherry ratio in Molm13 cells before and after exposure to MG132 (10 μM, 6 hours), normalized to pre-treatment values. […]
A reporter vector was generated in which wild-type PPM1D cDNA (wt), PPM1D truncation mutants, or the last 80 amino-acids (C-terminal region) were cloned in frame with GFP, so the level of expression of the PPM1D sequences could be monitored by GFP expression (FIG. 8B, Table 1).
The fluorescence level of mCherry, which is expressed following an IRES sequence, provided an internal control for vector expression in each cell. […]

“Also recorded” adds a separate entry of the source. Residues, ends and D or L forms follow the SMILES beside them. *: point of attachment. Cbz = O=C(OCc1ccccc1)*

Take `Nc1ccn([C@@H]2O[C@H](CO)[C@@H](O)[C@@H]2O)c(=O)n1` [Cytarabine]: in the test on PPM1D-mutant cells (1:5 chimeras, several rounds of cytarabine), the “PPM1D-mutant cells in the peripheral blood after cytarabine treatment” value is on record as “significant, selective increase of PPM1D-mutant cells in the peripheral blood”. Also, the “PPM1D-mutant hematopoietic stem and progenitor cells in the bone marrow” value in the test on PPM1D-mutant cells (12 weeks, 3 rounds of cytarabine) is given as “also increased”. Further, in test [1], the “apoptosis of PPM1D-mutant versus control cells after chemotherapy, Annexin V staining” value is given as “decreased apoptosis”. Also, the “viability of PPM1D-mutant cells versus control cells in the presence of chemotherapeutic agent” value was “increased resistance to Cytarabine in PPM1D mutant cells compared to empty vector controls; also recorded: resistance to treatment with Cytarabine” in test [2] and “increased viability at 72 hours” in test [2] (listed as cytarabine). Moreover, in test [3], the “competitive advantage of PPM1D-mutant cells under chemotherapy” value is “PPM1D mutant cells had a competitive advantage”. For the same molecule, in test [4], the “progression to G2/M phase of PPM1D-mutant versus control cells after chemotherapy” value was “increased progression to G2/M phase”.

On to `O=P1(N(CCCl)CCCl)NCCCO1` (stereo not drawn) [Cyclophosphamide], for which, in test [2], the “viability of PPM1D-mutant cells versus control cells in the presence of chemotherapeutic agent” value is “increased viability at 72 hours”. In addition, in test [3], the “competitive advantage of PPM1D-mutant cells under chemotherapy” value is reported as “PPM1D mutant cells had a competitive advantage”.

On to `O=C1/C(=C/c2cccs2)CC/C1=C\c1cccs1` [CCT007093], for which, in test [2] (72 hour, increasing doses), the “sensitivity of PPM1D-mutant cells versus control cells to single agent PPM1D inhibitor, cell viability” value was “increased sensitivity to treatment with the PPM1D inhibitor CCT007093 in comparison to wild-type (wt) control cells; also recorded: increased sensitivity to PPM1D inhibition with either compound in comparison to wild type control cells”.

Take `N.N.[Cl][Pt][Cl]` [Cisplatin]: in test [2], the “viability of PPM1D-mutant cells versus control cells in the presence of chemotherapeutic agent” value is “increased viability at 72 hours”.

As to `CC(C)C[C@@H](C=O)NC(=O)[C@H](CC(C)C)NC(=O)[C@H](CC(C)C)NC(=O)OCc1ccccc1` [MG132] (Cbz-Leu-Leu-Leu-aldehyde), the “degradation of PPM1D constructs (EGFP/mCherry ratio)” value with PPM1D is “decreased degradation of wild-type and C-terminal PPM1D, but not of the truncating mutants”.

(Values after US12201620B2, “Compositions and methods for treating chemotherapy resistant cancer” (The Brigham And Women's Hospital, Inc., priority 2016, dated 2025).)
